Measurements as given in ChEMBL document CHEMBL4825673, “Total and Semisyntheses of Polymyxin Analogues with 2-Thr or 10-Thr Modifications to Decipher the Structure-Activity Relationship and Improve the Antibacterial Activity” (J Med Chem, 2021).
Values after ≈ are worked out from the molar mass of the structure shown. Positions of bridges follow the written chain, without caps; N, C: chain ends. Non-standard residues stand in square brackets, D forms with d. Residues, ends and D or L forms follow the SMILES beside them. *: point of attachment. Octanoyl = CCCCCCCC(=O)*; Dab = NCC[C@H](N)C(=O)O

Experiments:
Pseudomonas aeruginosa [1] = experiment: Antibacterial activity against Pseudomonas aeruginosa assessed as inhibition of bacterial growth incubated for 24 hrs by broth microdilution method; assay type: functional; conditions: read-out: MIC100
Acinetobacter baumannii = experiment: Antibacterial activity against Acinetobacter baumannii assessed as inhibition of bacterial growth incubated for 24 hrs by broth microdilution method; assay type: functional; conditions: read-out: MIC100
Klebsiella pneumoniae = experiment: Antibacterial activity against Klebsiella pneumoniae assessed as inhibition of bacterial growth incubated for 24 hrs by broth microdilution method; assay type: functional; conditions: read-out: MIC100
Escherichia coli = experiment: Antibacterial activity against Escherichia coli assessed as inhibition of bacterial growth incubated for 24 hrs by broth microdilution method; assay type: functional; conditions: read-out: MIC100
Moraxella catarrhalis = experiment: Antibacterial activity against Moraxella catarrhalis assessed as inhibition of bacterial growth incubated for 24 hrs by broth microdilution method; assay type: functional; conditions: read-out: MIC100
Pseudomonas aeruginosa [2] = experiment: Antibacterial activity against Pseudomonas aeruginosa PAO1 assessed as inhibition of bacterial growth incubated for 24 hrs by broth microdilution method; assay type: functional; conditions: read-out: MIC100
HK-2 = experiment: Cytotoxicity against human HK-2 cells assessed as cell viability incubated for 72 hrs by CCK-8 assay; assay type: cell-based; conditions: hk-2, 72 h

MIC (Pseudomonas aeruginosa [1])	MIC (Acinetobacter baumannii)	MIC (Klebsiella pneumoniae)	MIC (Escherichia coli)	MIC (Moraxella catarrhalis)	MIC (Pseudomonas aeruginosa [2])	Compound	Activity (HK-2)
0.125 µg/mL (≈ 0.0909 µM)	0.06 µg/mL (≈ 0.0436 µM)	2 µg/mL (≈ 1.45 µM)	0.25 µg/mL (≈ 0.182 µM)	> 32 µg/mL	2 µg/mL (≈ 1.45 µM)	CC(C)CCCCC(=O)N[C@@H](CCN)C(=O)N[C@H](C(=O)N[C@@H](CCN)C(=O)N[C@H]1CCNC(=O)[C@H]([C@@H](C)O)NC(=O)[C@H](CCN)NC(=O)[C@H](CCN)NC(=O)[C@H](CC(C)C)NC(=O)[C@@H](Cc2ccccc2)NC(=O)[C@H](CCN)NC1=O)[C@@H](C)OC(=O)[C@@H](N)Cc1c[nH]c2ccccc12	–
0.25 µg/mL (≈ 0.198 µM)	0.125 µg/mL (≈ 0.0992 µM)	2 µg/mL (≈ 1.59 µM)	0.25 µg/mL (≈ 0.198 µM)	> 32 µg/mL	1 µg/mL (≈ 0.793 µM)	CC(C)CCCCC(=O)N[C@@H](CCN)C(=O)N[C@H](C(=O)N[C@@H](CCN)C(=O)N[C@H]1CCNC(=O)[C@H]([C@@H](C)O)NC(=O)[C@H](CCN)NC(=O)[C@H](CCN)NC(=O)[C@H](CC(C)C)NC(=O)[C@@H](Cc2ccccc2)NC(=O)[C@H](CCN)NC1=O)[C@@H](C)OC(=O)[C@H](C)N	–
–	–	–	–	–	–	CC[C@H](C)CCCCC(=O)N[C@@H](CCN)C(=O)N[C@H](C(=O)N[C@@H](CCN)C(=O)N[C@H]1CCNC(=O)[C@H]([C@@H](C)O)NC(=O)[C@H](CCN)NC(=O)[C@H](CCN)NC(=O)[C@H](CC(C)C)NC(=O)[C@@H](Cc2ccccc2)NC(=O)[C@H](CCN)NC1=O)[C@@H](C)OC(=O)[C@@H](N)CCC(=O)O	Non-Toxic
0.25 µg/mL (≈ 0.192 µM)	0.125 µg/mL (≈ 0.0959 µM)	1 µg/mL (≈ 0.767 µM)	0.25 µg/mL (≈ 0.192 µM)	> 64 µg/mL	1 µg/mL (≈ 0.767 µM)	CC(C)CCCCC(=O)N[C@@H](CCN)C(=O)N[C@H](C(=O)N[C@@H](CCN)C(=O)N[C@H]1CCNC(=O)[C@H]([C@@H](C)OC(=O)CN)NC(=O)[C@H](CCN)NC(=O)[C@H](CCN)NC(=O)[C@H](CC(C)C)NC(=O)[C@@H](Cc2ccccc2)NC(=O)[C@H](CCN)NC1=O)[C@@H](C)OC(=O)CN	–
0.25 µg/mL (≈ 0.19 µM)	0.125 µg/mL (≈ 0.0949 µM)	4 µg/mL (≈ 3.04 µM)	0.5 µg/mL (≈ 0.379 µM)	> 64 µg/mL	2 µg/mL (≈ 1.52 µM)	CC(C)CCCCC(=O)N[C@@H](CCN)C(=O)N[C@H](C(=O)N[C@@H](CCN)C(=O)N[C@H]1CCNC(=O)[C@H]([C@@H](C)O)NC(=O)[C@H](CCN)NC(=O)[C@H](CCN)NC(=O)[C@H](CC(C)C)NC(=O)[C@@H](Cc2ccccc2)NC(=O)[C@H](CCN)NC1=O)[C@@H](C)OC(=O)[C@@H](N)CCCCN	–
0.25 µg/mL (≈ 0.208 µM)	2 µg/mL (≈ 1.66 µM)	2 µg/mL (≈ 1.66 µM)	4 µg/mL (≈ 3.33 µM)	2 µg/mL (≈ 1.66 µM)	4 µg/mL (≈ 3.33 µM)	CCCCCCCC(=O)N[C@@H](CCN)C(=O)N[C@H](C(=O)N[C@@H](CCN)C(=O)N[C@H]1CCNC(=O)[C@H](CC(C)C)NC(=O)[C@H](CCN)NC(=O)[C@H](CCN)NC(=O)[C@H](CC(C)C)NC(=O)[C@@H](Cc2ccccc2)NC(=O)[C@H](CCN)NC1=O)[C@@H](C)O (Octanoyl-[Dab]T[Dab][Dab][Dab][dF]L[Dab][Dab]L; lactam 4-C)	–
0.5 µg/mL (≈ 0.406 µM)	8 µg/mL (≈ 6.5 µM)	> 32 µg/mL	4 µg/mL (≈ 3.25 µM)	16 µg/mL (≈ 13 µM)	16 µg/mL (≈ 13 µM)	CC(=O)O[C@H](C)[C@H](NC(=O)[C@H](CCN)NC(=O)CCCCC(C)C)C(=O)N[C@@H](CCN)C(=O)N[C@H]1CCNC(=O)[C@H]([C@@H](C)O)NC(=O)[C@H](CCN)NC(=O)[C@H](CCN)NC(=O)[C@H](CC(C)C)NC(=O)[C@@H](Cc2ccccc2)NC(=O)[C@H](CCN)NC1=O	–
0.25 µg/mL (≈ 0.187 µM)	0.25 µg/mL (≈ 0.187 µM)	0.5 µg/mL (≈ 0.374 µM)	0.5 µg/mL (≈ 0.374 µM)	> 32 µg/mL	4 µg/mL (≈ 2.99 µM)	CC(C)CCCCC(=O)N[C@@H](CCN)C(=O)N[C@H](C(=O)N[C@@H](CCN)C(=O)N[C@H]1CCNC(=O)[C@H]([C@@H](C)O)NC(=O)[C@H](CCN)NC(=O)[C@H](CCN)NC(=O)[C@H](CC(C)C)NC(=O)[C@@H](Cc2ccccc2)NC(=O)[C@H](CCN)NC1=O)[C@@H](C)OC(=O)[C@@H](N)Cc1ccccc1	–
0.125 µg/mL (≈ 0.0992 µM)	0.125 µg/mL (≈ 0.0992 µM)	0.5 µg/mL (≈ 0.397 µM)	0.25 µg/mL (≈ 0.198 µM)	> 64 µg/mL	4 µg/mL (≈ 3.17 µM)	CC[C@H](C)CCCCC(=O)N[C@@H](CCN)C(=O)N[C@H](C(=O)N[C@@H](CCN)C(=O)N[C@H]1CCNC(=O)[C@H]([C@@H](C)O)NC(=O)[C@H](CCN)NC(=O)[C@H](CCN)NC(=O)[C@H](CC(C)C)NC(=O)[C@@H](Cc2ccccc2)NC(=O)[C@H](CCN)NC1=O)[C@@H](C)OC(=O)CN	–
0.25 µg/mL (≈ 0.196 µM)	0.125 µg/mL (≈ 0.0979 µM)	1 µg/mL (≈ 0.783 µM)	0.25 µg/mL (≈ 0.196 µM)	32 µg/mL (≈ 25.1 µM)	1 µg/mL (≈ 0.783 µM)	CC(C)CCCCC(=O)N[C@@H](CCN)C(=O)N[C@H](C(=O)N[C@@H](CCN)C(=O)N[C@H]1CCNC(=O)[C@H]([C@@H](C)O)NC(=O)[C@H](CCN)NC(=O)[C@H](CCN)NC(=O)[C@H](CC(C)C)NC(=O)[C@@H](Cc2ccccc2)NC(=O)[C@H](CCN)NC1=O)[C@@H](C)OC(=O)[C@@H](N)CO	–
0.06 µg/mL (≈ 0.0504 µM)	0.25 µg/mL (≈ 0.21 µM)	2 µg/mL (≈ 1.68 µM)	2 µg/mL (≈ 1.68 µM)	4 µg/mL (≈ 3.36 µM)	2 µg/mL (≈ 1.68 µM)	CCCCCCCC(=O)N[C@@H](CCN)C(=O)N[C@H](C(=O)N[C@@H](CCN)C(=O)N[C@H]1CCNC(=O)[C@H](CS)NC(=O)[C@H](CCN)NC(=O)[C@H](CCN)NC(=O)[C@H](CC(C)C)NC(=O)[C@@H](Cc2ccccc2)NC(=O)[C@H](CCN)NC1=O)[C@@H](C)O	–
